From patent US20260109712A1, “RIFAMYCINS FOR NONTUBERCULOUS MYCOBACTERIA” (priority 2022, published 2026) come the findings set out here.

In brackets after ≈: the same amount, converted by molar mass. Read-outs that look alike come from different tables or passages of the source. Bounds are passed on as bounds.

One experiment relates to RFB-R1 M. abscessus. Description: microbe, parasite or virus in culture. Conditions: for MIC: Mycobacteroides abscessus, read-out: RFB-R1 M. abscessus MIC. Format: cell-based, Mycobacterium abscessus.
For another experiment, the system named is M. kansasii ATCC 12478. Description: MIC, anti-mycobacterial profiling. It is filed as cell-based, Mycobacterium kansasii. Conditions: for MIC: mean of two experiments.
Another experiment concerns M. abscessus ATCC 19977. Description: MIC assay in 96-well plate format, wild-type strain. Format: cell-based, Mycobacterium abscessus. Conditions: for MIC ratio: WT MIC/Δarr strain MIC. The procedure, abridged: (§1)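 Two-fold, ten-point dilutions in 7H9 with 2% DMSO; mid-log culture diluted to OD600=0.1 (1×10^7 CFU/mL). Incubated 3 days at 37 °C, shaking 110 RPM; growth = Day 3 minus Day 0 OD600, expressed as percentage of drug-free growth and plotted against concentration. Two biological replicates.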

Another experiment relates to M. xenopi ATCC 19250. Description: MIC, anti-mycobacterial profiling. The following applies: for MIC: mean of two experiments. Format: cell-based, Mycobacterium xenopi.
In the next experiment the test system is M. simiae ATCC 25275. Description: MIC, anti-mycobacterial profiling. Format: cell-based, Mycobacterium simiae. Conditions: for MIC: mean of two experiments.
For experiment [1], the system named is M. intracellulare ATCC 13950. Description: MIC, anti-mycobacterial profiling. It is filed as cell-based, Mycobacterium intracellulare. The following applies: for MIC: mean of two experiments.
The next experiment has as its system Δarr M. abscessus. Description: MIC assay, isogenic arr-deleted strain. Format: cell-based, Mycobacterium abscessus. The following applies: arr-deleted strain; 90% growth inhibition. The procedure, abridged: as §1
Experiment [2] has as its system M. abscessus subsp. bolletii CCUG 50184T. Description: MIC, anti-mycobacterial profiling. It is filed as cell-based, Mycobacterium abscessus. Conditions: for MIC: mean of two experiments. As for the experimental part:
(§2) MIC determination was carried out in 96-well plate format as previously described.^[13-14] 96-well plates were initially set up with 100 μL of 7H9 per well. For each compound, a ten-point two-fold dilution series starting at twice the desired highest concentration was dispensed onto the 96-well plates using a Tecan D300e Digital Dispenser, with the DMSO concentration normalized to 2%. M. abscessus culture grown to mid-log phase (OD600=0.4-0.6) was diluted to OD600=0.1 (1×10^7 CFU/mL). 100 μL of the resulting bacteria suspension was dispensed onto the 96-well plates containing compounds to give a final volume of 200 μL per well with an initial OD600=0.05 (5×10^6 CFU/mL) and final DMSO concentration of 1%. Final compound concentration ranges were typically 50-0.098 μM, 6.25-0.012 μM, 0.006-3.13 μM, or 0.003-1.56 μM. Untreated control wells are included on each plate that contain bacteria suspension and 1% DMSO. Plates were sealed with parafilm, stored in boxes with wet paper towels and incubated at 37° C. with shaking (110 RPM). Plates were incubated for 3 days. To determine growth, OD600 was measured using a Tecan Infinite M200 plate reader on Day 0 and Day 3. Two biological replicates were performed. Clarithromycin was included in each experiment as a positive control.
(§3) For each well on the 96-well plate, bacterial growth was calculated by subtracting the Day 0 OD600 value from the Day 3 OD600 value. For each compound series, the bacterial growth values for the untreated control wells were averaged to give the average drug-free bacterial growth. For compound-containing wells, percentage growth was calculated by dividing their growth values by the average drug-free bacterial growth for the compound series and multiplying by 100. For each compound series, we plotted percentage growth versus compound concentration. By visual inspection of the dose-response curve, we determined the MIC of a compound as the compound concentrations that would result in 90% growth inhibition.
(§4) The MIC data was determined using methods disclosed in Example 1.

Experiment [3] has as its system M. abscessus subsp. massiliense CCUG 48898T. Description: MIC, anti-mycobacterial profiling. It is filed as cell-based, Mycobacterium abscessus. Conditions: for MIC: mean of two experiments. As for the experimental part: as §2, §3, §4
Setting [4] is: Mycobacterium kansasii, ATCC12478.
Setting [5] is: Mycobacteroides abscessus, ATCC19977, M. abscessus ATCC 19977, 90% growth inhibition, read-out: WT Mab MIC.
[6] abbreviates: Mycobacteroides abscessus, ATCC19977, M. abscessus subsp. abscessus ATCC 19977, mean of two experiments, read-out: MIC.
The mark [7] stands for this setting: Mycobacterium xenopi, ATCC19250.
Where [8] appears, read: Mycobacterium simiae, ATCC25275.
The mark [9] stands for this setting: Mycobacterium intracellulare, ATCC13950.

On to `CO[C@H]1/C=C/O[C@@]2(C)Oc3c(C)c(O)c4c(c3C2=O)C2=NC3(CCN(CC(C)C)CC3)NC2=C(NC(=O)/C(C)=C/C=C/[C@H](C)[C@H](O)[C@@H](C)[C@@H](O)[C@@H](C)[C@H](OC(=O)c2cccnc2)[C@@H]1C)C4=O` [5m, 25-O-(3-pyridinecarbonyl)-25-O-desacetyrifabutin], for which the “RFB-R1 M. abscessus MIC” value with RFB-R1 M. abscessus (rpoB H447Y mutant, 90% inhibition) is >100 µM. In addition, the “Fold improvement (RFB-5m vs RFB)” value is listed as 1.0 in the experiment on M. kansasii ATCC 12478; 55 in the experiment with M. abscessus ATCC 19977 (M. abscessus subsp. abscessus ATCC 19977); 4.0 in the experiment on M. xenopi ATCC 19250; 95 in the experiment on M. simiae ATCC 25275; 0.8 in experiment [1]; 31 in experiment [2]. For the same compound, in [3], the “Fold improvement (RFB-5m vs RFB)” value stood at 12. Further, the MIC worked out at 0.008 µM (≈ 0.00728 µg/mL) against M. kansasii ATCC 12478; 0.024 µM (≈ 0.0218 µg/mL) in the experiment on M. abscessus ATCC 19977 (M. abscessus ATCC 19977, 90% growth inhibition, read-out: WT Mab MIC); 0.02 µM (≈ 0.0182 µg/mL) in the experiment on M. abscessus ATCC 19977 (M. abscessus subsp. abscessus ATCC 19977, mean of two experiments, read-out: MIC); 0.024 µM (≈ 0.0218 µg/mL) with M. abscessus ATCC 19977 (PK tables 2 and 8, read-out: WT MIC); 0.005 µM (≈ 0.00455 µg/mL) against M. xenopi ATCC 19250; 0.2 µM (≈ 0.182 µg/mL) with M. simiae ATCC 25275. Besides, the MIC in experiment [1] was found to be 0.06 µM (≈ 0.0546 µg/mL); in experiment [2] it was 0.07 µM (≈ 0.0637 µg/mL); in experiment [3], 0.05 µM (≈ 0.0455 µg/mL). The “Mab 19977 MIC” value in the experiment on M. abscessus ATCC 19977 (90% inhibition of bacterial growth) amounted to 0.025 µM. The MIC ratio in the experiment with M. abscessus ATCC 19977 is 0.9. Besides, the “Δarr Mab MIC” value in the experiment with Δarr M. abscessus was 0.026 µM.

As to `CC[C@H]1OC(=O)[C@H](C)[C@@H](O[C@H]2C[C@@](C)(OC)[C@@H](O)[C@H](C)O2)[C@H](C)[C@@H](O[C@@H]2O[C@H](C)C[C@H](N(C)C)[C@H]2O)[C@](C)(OC)C[C@@H](C)C(=O)[C@H](C)[C@@H](O)[C@]1(C)O` [clarithromycin, reference compound], the MIC in the experiment with RFB-R1 M. abscessus came to 2.1 µM (≈ 1.57 µg/mL); against M. kansasii ATCC 12478 (setting [4]) it was 0.3 µM (≈ 0.224 µg/mL); in the experiment with M. abscessus ATCC 19977 (setting [5]), 1.45 µM (≈ 1.08 µg/mL); with M. abscessus ATCC 19977 (setting [6]) it was 1.5 µM (≈ 1.12 µg/mL); against M. xenopi ATCC 19250 (setting [7]) it was 0.06 µM (≈ 0.0449 µg/mL); with M. simiae ATCC 25275 (setting [8]), 12 µM (≈ 8.98 µg/mL). The MIC in [1] (setting [9]) was determined as 0.4 µM (≈ 0.299 µg/mL); in [2] (Mycobacteroides abscessus), 4.3 µM (≈ 3.22 µg/mL); in [3] (Mycobacteroides abscessus), 1.1 µM (≈ 0.823 µg/mL). The MIC ratio in the experiment with M. abscessus ATCC 19977 was determined as 0.7. Moreover, in the experiment with Δarr M. abscessus, the “Δarr Mab MIC” value worked out at 1.8 µM.

On to `CO[C@H]1/C=C/O[C@@]2(C)Oc3c(C)c(O)c4c(c3C2=O)C2=NC3(CCN(CC(C)C)CC3)NC2=C(NC(=O)/C(C)=C\C=C\[C@H](C)[C@H](O)[C@@H](C)[C@@H](O)[C@@H](C)[C@H](OC(C)=O)[C@@H]1C)C4=O` [rifabutin, reference compound], for which the MIC in the experiment on RFB-R1 M. abscessus was > 100 µM; against M. kansasii ATCC 12478 (setting [4]), 0.008 µM (≈ 0.00678 µg/mL); with M. abscessus ATCC 19977 (setting [5]), 1.15 µM (≈ 0.974 µg/mL); in the experiment with M. abscessus ATCC 19977 (setting [6]), 1.1 µM (≈ 0.932 µg/mL); with M. abscessus ATCC 19977 (Mycobacteroides abscessus, ATCC19977, PK tables 2 and 8, read-out: WT MIC), 1.15 µM (≈ 0.974 µg/mL); in the experiment on M. xenopi ATCC 19250 (setting [7]), 0.02 µM (≈ 0.0169 µg/mL). In addition, the MIC in the experiment on M. simiae ATCC 25275 (setting [8]) was 19 µM (≈ 16.1 µg/mL); in experiment [1] (setting [9]), 0.05 µM (≈ 0.0424 µg/mL); in [2] (Mycobacteroides abscessus) it was 2.2 µM (≈ 1.86 µg/mL); in [3] (Mycobacteroides abscessus), 0.6 µM (≈ 0.508 µg/mL). In the experiment with M. abscessus ATCC 19977, the MIC ratio is listed as 39.3. In the experiment on Δarr M. abscessus, the “Δarr Mab MIC” value was determined as 0.031 µM.
